Key:
[1] = Pharmacokinetic evaluation of milled niclosamide extrudate in CD-1 mice; format: in vivo; conditions: 500 mg/kg suspended in 0.5% Methocel A4M
SARS-CoV-2 = format: cell-based; conditions: assumed that the wet tissue has a density
SARS-CoV = conditions: Vero cells infected by SARS-CoV (2002 pandemic); cited from earlier work
COVID-19 = conditions: Vero E6 cells; cited from earlier work
[2] = Oral pharmacokinetic analysis in rats; format: in vivo; conditions: niclosamide dose 10 mg/kg by oral gavage, n = 5
Method: The oral pharmacokinetic analysis was conducted at Pharmaron (Ningbo, China). The study protocol was approved and conducted in accordance with the Institutional Animal Care and Use Committee (IACUC) guidelines at Pharmaron. (IACUC; Protocol Number AUP-PK-R-06012019). […] The powders were blended by mortar and pestle and loaded into the capsules using the capsule filling funnel for size 9 (Torpac, Fairfield, NJ, USA). […] Two mobile phases were used. The mobile phase A was a 0.1% formic acid aqueous solution, and the mobile phase B was a mixture of 5% water and 95% acetonitrile (0.1% formic acid). Then, 50 μL of plasma with 5 μL of methanol were added to 200 μL of methanol containing an internal standard mixture for protein precipitation. The samples were vortexed for 30 s and underwent centrifugation for 15 min at 4000 rpm and […]. Thereafter, the supernatant was diluted three times with water, and 2 μL were injected into the HPLC. Furthermore, the resultant particles were subjected to dissolution and the resultant supernatants after centrifugation were analyzed.

Work on `O=C(Nc1ccc([N+](=O)[O-])cc1Cl)c1cc(Cl)ccc1O` [Crystalline Nic] yielded an AUC0-last [1] of 1.4546 µg·h/mL, a Cmax [1] of 0.6617 µg/mL and a Tmax [1] of 0.5 h.

With `O=C(Nc1ccc([N+](=O)[O-])cc1Cl)c1cc(Cl)ccc1O` [niclosamide, 5-Chloro-N-(2-chloro-4-nitrophenyl)salicylamide] the “Estimated niclosamide IC50 for SARS-CoV-2” value (SARS-CoV-2) was 0.09156 μg/g of wet tissue.

In the case of `CCN(CC)CCCC(C)Nc1ccnc2cc(Cl)ccc12` (stereo not shown) [chloroquine], the IC50 (SARS-CoV) is given as 4.4 µM and the IC50 (COVID-19) is given as 1.13 µM.

With `O=C(Nc1ccc([N+](=O)[O-])cc1Cl)c1cc(Cl)ccc1O` the AUCInf [2] was 0.188 µg·h/mL, the AUClast [2] was 0.168 µg·h/mL and the “AUC—% Extrap_obs” value [2] was 8.4%. For the same compound, the Cmax [2] was 0.0483 µg/mL, the MRTInf_obs [2] was 3.56 h and the T1/2 [2] was 1.00 h. It also gave a Tmax [2] of 3.60 h.
